Measurements taken from ChEMBL document CHEMBL3046265, “Synthesis, evaluation of antimicrobial activity, and molecular modeling of novel 2-((4-(2H-benzo[d] [1,2,3] triazol-2-yl)piperidin-1-yl)methyl)-5-substituted phenyl-1,3,4-oxadiazoles” (2013).

What was measured:
Assay type in all cases: functional
Settings in all cases: read-out: IZ
Bacillus pumilus [1] = test: Antibacterial activity against Bacillus pumilus at 600 ug/ml after overnight incubation
Klebsiella pneumoniae [2] = test: Antibacterial activity against Klebsiella pneumoniae at 900 ug/ml after overnight incubation
Colletotrichum falcatum [3] = test: Antifungal activity against Glomerella tucumanensis at 1200 ug/ml after 48 hr
Staphylococcus aureus [4] = test: Antibacterial activity against Staphylococcus aureus at 900 ug/ml after overnight incubation
Streptococcus pyogenes [5] = test: Antibacterial activity against Streptococcus pyogenes at 900 ug/ml after overnight incubation
Exserohilum rostratum [6] = test: Antifungal activity against Setosphaeria rostrata at 1200 ug/ml after 48 hr
Candida albicans [7] = test: Antifungal activity against Candida albicans at 1200 ug/ml after 48 hr
Fusarium oxysporum [8] = test: Antifungal activity against Fusarium oxysporum at 900 ug/ml after 48 hr
Escherichia coli [9] = test: Antibacterial activity against Escherichia coli at 600 ug/ml after overnight incubation
Staphylococcus aureus [10] = test: Antibacterial activity against Staphylococcus aureus at 600 ug/ml after overnight incubation
Candida albicans [11] = test: Antifungal activity against Candida albicans at 600 ug/ml after 48 hr
Klebsiella aerogenes [12] = test: Antibacterial activity against Enterobacter aerogenes at 900 ug/ml after overnight incubation
Priestia megaterium [13] = test: Antibacterial activity against Bacillus megaterium at 900 ug/ml after overnight incubation
Proteus vulgaris [14] = test: Antibacterial activity against Proteus vulgaris at 900 ug/ml after overnight incubation
Proteus vulgaris [15] = test: Antibacterial activity against Proteus vulgaris at 600 ug/ml after overnight incubation
Bacillus pumilus [16] = test: Antibacterial activity against Bacillus pumilus at 900 ug/ml after overnight incubation
Colletotrichum falcatum [17] = test: Antifungal activity against Glomerella tucumanensis at 300 ug/ml after 48 hr
Colletotrichum falcatum [18] = test: Antifungal activity against Glomerella tucumanensis at 900 ug/ml after 48 hr
Exserohilum rostratum [19] = test: Antifungal activity against Setosphaeria rostrata at 600 ug/ml after 48 hr
Bacillus subtilis [20] = test: Antibacterial activity against Bacillus subtilis at 900 ug/ml after overnight incubation
Priestia megaterium [21] = test: Antibacterial activity against Bacillus megaterium at 600 ug/ml after overnight incubation
Klebsiella pneumoniae [22] = test: Antibacterial activity against Klebsiella pneumoniae at 600 ug/ml after overnight incubation
Colletotrichum falcatum [23] = test: Antifungal activity against Glomerella tucumanensis at 600 ug/ml after 48 hr
Enterococcus faecalis [24] = test: Antibacterial activity against Enterococcus faecalis at 600 ug/ml after overnight incubation
Candida albicans [25] = test: Antifungal activity against Candida albicans at 300 ug/ml after 48 hr
Exserohilum rostratum [26] = test: Antifungal activity against Setosphaeria rostrata at 300 ug/ml after 48 hr
Bacillus subtilis [27] = test: Antibacterial activity against Bacillus subtilis at 600 ug/ml after overnight incubation
Candida albicans [28] = test: Antifungal activity against Candida albicans at 900 ug/ml after 48 hr
Fusarium oxysporum [29] = test: Antifungal activity against Fusarium oxysporum at 600 ug/ml after 48 hr
Exserohilum rostratum [30] = test: Antifungal activity against Setosphaeria rostrata at 900 ug/ml after 48 hr
Escherichia coli [31] = test: Antibacterial activity against Escherichia coli at 900 ug/ml after overnight incubation
Klebsiella aerogenes [32] = test: Antibacterial activity against Enterobacter aerogenes at 600 ug/ml after overnight incubation
Fusarium oxysporum [33] = test: Antifungal activity against Fusarium oxysporum at 1200 ug/ml after 48 hr
Streptococcus pyogenes [34] = test: Antibacterial activity against Streptococcus pyogenes at 600 ug/ml after overnight incubation
Fusarium oxysporum [35] = test: Antifungal activity against Fusarium oxysporum at 300 ug/ml after 48 hr
Enterococcus faecalis [36] = test: Antibacterial activity against Enterococcus faecalis at 900 ug/ml after overnight incubation

## Cc1ccc(-c2nnc(CN3CCC(n4nc5ccccc5n4)CC3)o2)cc1Br
Bacillus pumilus [1]
  zone of inhibition at 600 µg/mL: 3.32 mm
Klebsiella pneumoniae [2]
  zone of inhibition at 900 µg/mL: 12.8 mm
Colletotrichum falcatum [3]
  zone of inhibition at 1200 µg/mL: 25.6 mm
Staphylococcus aureus [4]
  zone of inhibition at 900 µg/mL: 11.2 mm
Streptococcus pyogenes [5]
  zone of inhibition at 900 µg/mL: 5.56 mm
Exserohilum rostratum [6]
  zone of inhibition at 1200 µg/mL: 17.2 mm
Candida albicans [7]
  zone of inhibition at 1200 µg/mL: 17.8 mm
Fusarium oxysporum [8]
  zone of inhibition at 900 µg/mL: 13.2 mm
Escherichia coli [9]
  zone of inhibition at 600 µg/mL: 6.85 mm
Staphylococcus aureus [10]
  zone of inhibition at 600 µg/mL: 5.85 mm
Candida albicans [11]
  zone of inhibition at 600 µg/mL: 5.51 mm
Klebsiella aerogenes [12]
  zone of inhibition at 900 µg/mL: 7.05 mm
Priestia megaterium [13]
  zone of inhibition at 900 µg/mL: 9.85 mm
Proteus vulgaris [14]
  zone of inhibition at 900 µg/mL: 10.1 mm
Proteus vulgaris [15]
  zone of inhibition at 600 µg/mL: 4.85 mm
Bacillus pumilus [16]
  zone of inhibition at 900 µg/mL: 6.56 mm
Colletotrichum falcatum [17]
  zone of inhibition at 300 µg/mL: 4.22 mm
Colletotrichum falcatum [18]
  zone of inhibition at 900 µg/mL: 14 mm
Exserohilum rostratum [19]
  zone of inhibition at 600 µg/mL: 5.21 mm
Bacillus subtilis [20]
  zone of inhibition at 900 µg/mL: 9.05 mm
Priestia megaterium [21]
  zone of inhibition at 600 µg/mL: 5.85 mm
Klebsiella pneumoniae [22]
  zone of inhibition at 600 µg/mL: 6.02 mm
Colletotrichum falcatum [23]
  zone of inhibition at 600 µg/mL: 7.8 mm
Enterococcus faecalis [24]
  zone of inhibition at 600 µg/mL: 3.35 mm
Candida albicans [25]
  zone of inhibition at 300 µg/mL: 3.23 mm
Exserohilum rostratum [26]
  zone of inhibition at 300 µg/mL: 3.25 mm
Bacillus subtilis [27]
  zone of inhibition at 600 µg/mL: 4.25 mm
Candida albicans [28]
  zone of inhibition at 900 µg/mL: 9.26 mm
Fusarium oxysporum [29]
  zone of inhibition at 600 µg/mL: 7.36 mm
Exserohilum rostratum [30]
  zone of inhibition at 900 µg/mL: 9.86 mm
Escherichia coli [31]
  zone of inhibition at 900 µg/mL: 11.1 mm
Klebsiella aerogenes [32]
  zone of inhibition at 600 µg/mL: 3.55 mm
Fusarium oxysporum [33]
  zone of inhibition at 1200 µg/mL: 26.9 mm
Streptococcus pyogenes [34]
  zone of inhibition at 600 µg/mL: 2.25 mm
Fusarium oxysporum [35]
  zone of inhibition at 300 µg/mL: 4.21 mm
Enterococcus faecalis [36]
  zone of inhibition at 900 µg/mL: 5.56 mm
